The results in this text go back to patent US10716798B2, “Compositions and methods for tranquilizing heart muscle” (THE REGENTS OF THE UNIVERSITY OF MICHIGAN, priority 2007, dated 2020).

The subject of data set [1] is atrial natriuretic peptide (ANP) in HL-1 cardiomyocytes. The data set can be described thus: Repression of atrial natriuretic peptide (ANP) in HL-1 cardiomyocytes (Western blot). Format: cell-based. The settings on record: HL-1 cardiomyocytes treated 48 hours, Western analysis, vs vehicle. Here is the method: Induction of VDR and repression of ANP by calcitriol (1,25-(OH)2vitamin-D3) and 1 alpha analogs (1α-Hydroxyitamin-D3 and 1α-hydroxysitocalciferol) is shown in the Western blot of FIG. 7. HL-1 cardiomyocyte cells were grown until confluent then split, and an equal amount (8×10^6 cells) of cells were plated for 24 hours and then treated for 48 hours either with vehicle (control) or with the indicated amount of Vitamin D compound. Cells were then harvested and subjected to Western analysis.

Data set [2] relates to SHHF rats. The data set can be described thus: Resting heart rate in SHHF rats after Vitamin D treatment. The note with it: 13 weeks; for Heart rate vs control SHHF rats: SQ. Format: in vivo, rat. An excerpt:
(§1) The effects of Vitamin D compounds including Vitamin D5 and D3 on the contraction of cardiomyocytes in vivo can be studied using normal and heart failure prone rats. To test the effect of Vitamin D compounds on heart failure rats, the present inventors selected the strain of rats called Spontaneously Hypertensive Heart Failure (SHHF) rats obtained from Charles River Laboratories, Wilmington Mass., USA. The SHHF rat was developed by backcrossing the SHROB rat to the SHR/N rat. They are characterized as naturally developing congestive heart failure, hypertension, nephropathy, obesity, insulin resistance, hyperinsulinemia and Type 2 diabetes spontaneously. […] Obesity is expressed as an autosomal recessive (cp/cp) trait, and hypertension is multifactorial (Yen at al., 1974). The CHF trait has been maintained through at least 15 generations. The mode of inheritance of the CHF is probably multifactorial, much like hypertension. These rats develop many of the clinical signs of CHF: generalized and subcutaneous edema, hydrothorax, ascites, dyspnea, cyanosis, enlarged hearts, left atrial thrombosis, and hyperemia of the lungs, liver, and kidneys. These rats are hypertensive, but blood pressure falls to normal levels with the onset of severe CHF. […] These morphologic changes probably reflect early compensatory LV hypertrophy at 6-10 months of age. This is followed by LV failure with elevated right heart pressures and RVFW hypertrophy, finally leading to biventricular CHF. This progression is similar to that of hypertensive heart disease in humans. Other similarities between the SHHF model and human hypertensive-diabetic cardiomyopathy (Factor et al., 1980) and another rat model of hypertension and diabetes (Factor et al., 1983) include increased heart weight and prominent interstitial fibrosis. Pathologic alterations in SHHF Rat hearts corresponding to human dilated cardiomyopathy include four-chamber dilation, intracardiac thrombi, myocyte hypertrophy, and interstitial fibrosis (Unveferth et al., 1986).
Five treatment groups were established using SHHF rats. […]

Data set [3] deals with Vitamin D receptor (VDR) in HL-1 cardiomyocytes. The data set can be described thus: Induction of VDR in HL-1 cardiomyocytes (Western blot). Format: cell-based. The note with it: HL-1 cardiomyocytes treated 48 hours, Western analysis, vs vehicle. Here is the method: HL-1 cardiomyocyte cells were grown until confluent then split, and an equal amount (8×10^6 cells) of cells were plated for 24 hours and then treated for 48 hours either with vehicle (control) or with the indicated amount of Vitamin D compound. Cells were then harvested and subjected to Western analysis.

A short description of data set [4]: Total body weight of SHHF rats. The class given is in vivo, rat. The settings on record: 100 ng/100 g body weight, SQ, 13 weeks. Here is the method: (§2) Five treatment groups were established using SHHF rats. In each cohort (5-6 rats), the diets were substantially identical, rats were each fed a high salt diet (8% NaCl) (Harlan Teklad diet TD92012, Madison Wis. USA) and were accommodated equally. All treatment groups received a single once daily administration subcutaneously (SQ) of a Vitamin D compound at varying concentrations five times per week. The Vitamin D compound was dissolved in 1,2 propandiol containing 0.7% ethanol. Control SHHF rats were dosed with vehicle control alone. The animals were dosed for a period of 13 weeks before they were examined by echocardiography explained in more detail below. The first group comprised a control group in which they received a vehicle alone treatment lacking any Vitamin D. The second group consisted of SHHF rats injected with 18 ng 1,25 dihydroxy Vitamin D3 per dose, one dose per day treated animals. The third group consisted of SHHF rats injected with 33 ng of 1α-hydroxysitocalciferol per dose, one dose per day treated animals. The fourth group consisted of SHHF rats injected with 100 ng of 1α-hydroxysitocalciferol per dose, one dose per day treated animals. The fifth group consisted of SHHF rats injected with 300 ng of 1α-hydroxysitocalciferol per dose, one dose per day treated animals.
Blood pressure measurement by tail-cuff artery occlusion.

For data set [5], the system named is SHHF rats. In words: Systolic blood pressure by tail-cuff in SHHF rats. The note with it: 100 ng/100 g bw, SQ, 13 weeks. The class given is in vivo, rat.
Excerpt: as §1, with “This is followed by LV failure with elevated right heart pressures and RVFW hypertrophy, finally leading to biventricular CHF. This progression is similar to that of hypertensive heart disease in humans. Other similarities between the SHHF model and human hypertensive-diabetic cardiomyopathy (Factor et al., 1980) and another rat model of hypertension and diabetes (Factor et al., 1983) include increased heart weight and prominent interstitial fibrosis. Pathologic alterations in SHHF Rat hearts corresponding to human dilated cardiomyopathy include four-chamber dilation, intracardiac thrombi, myocyte hypertrophy, and interstitial fibrosis (Unveferth et al., 1986).” left out

A further data set relates to adult cardiomyocyte. The data set can be described thus: PKC activation and adult cardiomyocyte contractile function. The class given is cell-based. Here is the method:
In addition to continued acceleration of relengthening in cardiomyocytes, upon administration of Vitamin D5 the PKC targets phospholamban and cardiac troponin I (cTnI) are specifically phosphorylated by PKC within approximately 60 minutes. Without being bound to theory, it is believed that phosphorylation of phospholamban can increase Ca^2+ sequestration into the sarcoplasmic reticulum while cardiac troponin C I phosphorylation decreases myofilament Ca^2+ sensitivity, two particularly significant events in increasing the relaxation of contractile function in the adult cardiomyocyte.
The pharmaceutical compositions and methods described herein illustrate a mechanism to accelerate relaxation of cardiomyocyte contractile function via direct and rapid cellular action upon administration of 1α25-dihydroxyvitamin D5. These acute effects can be blocked by PKC inhibitors, illustratively bis-I. The phosphorylation of these key cardiac markers phospholamban and troponin C I develop within the same time period as the initial rapid decrease in peak shortening, and acceleration of contraction and relaxation rates.

In data set [6] the test system is SHHF rats. The data set can be described thus: Cardiac hemodynamic parameters by echocardiography in SHHF rats. The settings on record: for E/A transmitral flow ratio, change vs control / Cardiac index vs control / Stroke volume vs control: 5 days per week for 13 weeks. The class given is in vivo, rat. Here is the method: as §2
After 13 weeks of treatment with the Vitamin D compounds or vehicle control alone, the SHHF rat's cardiac hemodynamic condition was measured, recorded and analyzed for the presence or absence of cardiac tranquilization and reversal of heart failure symptoms.
Non-invasive recording electrocardiograms and echocardiography in conscious rats: Two-dimensional and M-mode echocardiographic images will be recorded using a GE S10 MHz phased-array transducer, connected to a General Electric, Vivid 7 Ultrasound System. The System used for ECG was the AnonyMOUSE ECG Screening System (Mouse Specifics, Boston, Mass. USA). The rats are placed on the instrument's platform and acclimated for 10 min prior to ECG recordings. Animals are anesthetized using an isoflurane anesthetic machine, first by introducing 4% isoflurane and 1 liter of oxygen to an induction chamber. When rats are in lateral recumbency and the breathing is slowed, they are moved to the table where they are placed on a warming pad to maintain body temperature. Their nose is placed in a cone which supplies 1-2% isoflurane and 1 liter of oxygen to maintain a surgical plane of anesthesia. The hair is removed from the upper abdominal and thoracic area with depilatory cream. ECG is monitored via non-invasive resting ECG electrodes (trimmed to fit) placed on the paw pads. The echocardiogram takes approximately 10 minutes.
Transthoracic echocardiography is performed in the supine or left lateral position. Data are analyzed by proprietal software and all rats ECG intervals analyzed by Student's two-tail t-test. […]

The mark [7] stands for this setting: 300 ng/day, listed as Vitamin D5.

Some results are limits rather than exact numbers.

In the case of `C=C1/C(=C\C=C2/CCC[C@]3(C)[C@@H]([C@H](C)CCCC(C)(C)O)CC[C@@H]23)C[C@@H](O)C[C@@H]1O` [1,25(OH)2D3, 1,25-dihydroxyvitamin D3, reference compound], the “Repression of ANP expression” value in data set [1] was “repression”. For the same compound, the “Heart rate vs control SHHF rats or Wistar rats” value in the data set with SHHF rats [2] (18 ng 1,25(OH)2D3, SQ) is given as “higher heart rates albeit not statistically significant”.
As for `C=C1/C(=C\C=C2/CCC[C@]3(C)[C@@H]([C@H](C)CCCC(C)C)CC[C@@H]23)C[C@@H](O)C[C@@H]1O` [1α-Hydroxyitamin-D3, reference compound], in data set [1], the “Repression of ANP expression” value is “repression”. Further, the “Induction of VDR” value in data set [3] is listed as “considerable induction”.
For the compound `C=C1/C(=C\C=C2/CCC[C@]3(C)[C@@H]([C@H](C)CC[C@@H](CC)C(C)C)CC[C@@H]23)C[C@@H](O)C[C@@H]1O` [1α-hydroxysitocalciferol, 1-α-hydroxy-2,4-ethyl-9,10-seco-5,7,10(19)-cholestatrien-3 β-ol], the “Total body weight at 30 weeks age vs control SHHF rats” value in data set [4] is “significant increased body weight”. Besides, the “Systolic blood pressure vs control SHHF rats” value with SHHF rats [5] was “significant decreased BP”. For the same compound, the “Repression of ANP expression” value in data set [1] is recorded as “remarkable repression”. The “Time to phosphorylation of phospholamban and cardiac troponin I (cTnI) by PKC” value with adult cardiomyocyte (cardiomyocytes, upon administration of Vitamin D5) was no more than 60 min. For the same compound, the “Relaxation in adult cardiomyocyte contractile function” value in the data set with adult cardiomyocyte (via PKC activation) is “accelerated relaxation”. Besides, the “E/A transmitral flow ratio, change vs control” value with SHHF rats [6] (100 ng/day) is listed as “statistically significant reduction”; in the data set with SHHF rats [6] (100 ng/day, listed as Vitamin D5), “significant reduction”; in the data set on SHHF rats [6] (300 ng/day), “statistically significant reduction”. Moreover, the E/A ratio result in the data set on SHHF rats [6] (300 ng/day, 13 week treatment) was “about 0.99”. Moreover, the “Cardiac index vs control” value is given as “statistically significant reduction” in the data set on SHHF rats [6] (300 ng/day) and “significant reduction” with SHHF rats [6] (setting [7]). For the same compound, the “Stroke volume vs control” value with SHHF rats [6] (300 ng/day) is on record as “statistically significant reduction”; in the data set on SHHF rats [6] (setting [7]) it was “Most pronounced”. Moreover, the “Stroke volume, untreated SHHF rats in comparison to treated” value with SHHF rats [6] (all doses of Vitamin D5 (33, 100, 300 ng/day), 13 weeks) is recorded as “statistically significant”. Further, the “Heart rate vs control SHHF rats” value is recorded as “decrease” in the data set with SHHF rats [2] (33 ng/100 g body weight) and “increase in heart rate” in the data set on SHHF rats [2] (300 ng/day). Further, in data set [3], the “Induction of VDR” value is given as “considerable induction”.
